Molecular target: T1, human NEP (Homo sapiens, UniProt P08473)
T1 construct: purchased R&D Systems, Minneapolis, Minn; 1182-ZN
Test: In vitro enzyme inhibition assay at human NEP (fluorogenic peptide substrate)
Format: biochemical
Details: pKi values at human NEP (recombinant), given as ranges
Method: The inhibitory activities of compounds at human and rat neprilysin (EC 3.4.24.11; NEP) and human angiotensin converting enzyme (ACE) were determined using in vitro assays as described below.
Recombinant human NEP and recombinant human ACE were obtained commercially (R&D Systems, Minneapolis, Minn., catalog numbers 1182-ZN and 929-ZN, respectively). The fluorogenic peptide substrate Mca-D-Arg-Arg-Leu-Dap-(Dnp)-OH (Medeiros et al. (1997) Braz. J. Med. Biol. Res. 30:1157-62; Anaspec, San Jose, Calif.) and Abz-Phe-Arg-Lys(Dnp)-Pro-OH (Araujo et al. (2000) Biochemistry 39:8519-8525; Bachem, Torrance, Calif.) were used in the NEP and ACE assays respectively.
The assays were performed in 384-well white opaque plates at 37° C. using the fluorogenic peptide substrates at a concentration of 10 μM in Assay Buffer (NEP: 50 mM HEPES, pH 7.5, 100 mM NaCl, 0.01% polyethylene glycol sorbitan monolaurate (Tween-20), […]; ACE: 50 mM HEPES, pH 7.5, 100 mM NaCl, 0.01% Tween-20, 1 μM ZnSO4).
Test compounds were assayed over the range of concentrations from 10 μM to 20 pM. Test compounds were added to the enzymes and incubated for 30 minute at 37° C. prior to initiating the reaction by the addition of substrate. Reactions were terminated after 20 minutes of incubation at 37° C. by the addition of glacial acetic acid to a final concentration of 3.6% (v/v).
Plates were read on a fluorometer with excitation and emission wavelengths set to 320 nm and 405 nm, respectively. Inhibition constants were obtained by nonlinear regression of the data using the equation (GraphPad Software, Inc., San Diego, Calif.): ν=ν0/[1+(I/K′)] where ν is the reaction rate, ν0 is the uninhibited reaction rate, I is the inhibitor concentration and K′ is the apparent inhibition constant.
Compounds of the invention were tested in this assay and found to have pKi values at human NEP as follows.

T1 sequence (P08473 52-750 limits assumed): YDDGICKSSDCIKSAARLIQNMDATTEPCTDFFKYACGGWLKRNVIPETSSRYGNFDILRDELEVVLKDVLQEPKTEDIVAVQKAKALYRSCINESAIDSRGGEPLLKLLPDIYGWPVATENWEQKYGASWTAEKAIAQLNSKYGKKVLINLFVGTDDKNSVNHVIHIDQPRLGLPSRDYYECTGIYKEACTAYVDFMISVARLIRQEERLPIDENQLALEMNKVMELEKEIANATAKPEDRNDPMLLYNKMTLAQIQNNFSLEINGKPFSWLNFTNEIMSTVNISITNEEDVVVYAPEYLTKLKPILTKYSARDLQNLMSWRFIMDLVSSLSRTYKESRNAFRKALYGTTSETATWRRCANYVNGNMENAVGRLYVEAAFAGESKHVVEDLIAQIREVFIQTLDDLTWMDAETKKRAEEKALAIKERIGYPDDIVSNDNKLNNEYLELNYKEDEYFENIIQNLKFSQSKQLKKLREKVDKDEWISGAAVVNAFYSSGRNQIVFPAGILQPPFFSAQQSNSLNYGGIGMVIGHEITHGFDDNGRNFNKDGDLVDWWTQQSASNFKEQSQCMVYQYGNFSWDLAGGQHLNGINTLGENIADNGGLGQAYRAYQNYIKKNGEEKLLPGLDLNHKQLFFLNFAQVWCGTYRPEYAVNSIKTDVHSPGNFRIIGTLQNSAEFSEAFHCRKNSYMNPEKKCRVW

Ki [nM] | Compound
12.6 to 100 | CN(C)C(=O)c1cc(C(=O)NN(Cc2ccc(-c3cccc(Cl)c3)cc2)C[C@@](C)(O)C(=O)O)[nH]n1 [Example 7-9, (R)-3-[N-(3′-Chlorobiphenyl-4-ylmethyl)-N′-(5-dimethylcarbamoyl-2H-pyrazole-3-carbonyl)-hydrazino]-2-hydroxy-2-methyl-propionic acid]
≤ 1 | C[C@@](O)(CN(Cc1ccc(-c2cccc(Cl)c2)cc1)NC(=O)c1cc(C(=O)O)n[nH]1)C(=O)O [Example 7-10, 5-[N′—((R)-2-Carboxy-2-hydroxy-propyl)-N′-(3′-chlorobiphenyl-4-ylmethyl)-hydrazinocarbonyl]-1H-pyrazole-3-carboxylic acid]
≤ 1 | C[C@@](O)(CN(Cc1ccc(-c2cccc(Cl)c2)cc1)NC(=O)c1cc(O)no1)C(=O)O [Example 7-11, (R)-3-[N-(3′-Chlorobiphenyl-4-ylmethyl)-N′-(3-hydroxy-isoxazole-5-carbonyl)-hydrazino]-2-hydroxy-2-methyl-propionic acid]
≤ 1 | Cc1ccc(Cl)cc1-c1ccc(CN(C[C@@](C)(O)C(=O)O)NC(=O)c2cc(O)no2)cc1 [Example 7-12, (R)-3-[N-(5′-Chloro-2′-methyl-biphenyl-4-ylmethyl)-N′-(3-hydroxy-isoxazole-5-carbonyl)-hydrazino]-2-hydroxy-2-methyl-propionic acid]
12.6 to 100 | C[C@@](O)(CN(Cc1ccc(-c2cc(Cl)cc(Cl)c2)cc1)NC(=O)c1cc(O)no1)C(=O)O [Example 7-13, (R)-3-[N-(3′,5′-Dichlorobiphenyl-4-ylmethyl)-N′-(3-hydroxy-isoxazole-5-carbonyl)-hydrazino]-2-hydroxy-2-methyl-propionic acid]
1.26 to 10 | COc1ccccc1-c1ccc(CN(C[C@@](C)(O)C(=O)O)NC(=O)c2cc(O)no2)cc1 [Example 7-14, (R)-2-Hydroxy-3-[N′-(3-hydroxy-isoxazole-5-carbonyl)-N-(2′-methoxy-biphenyl-4-ylmethyl)-hydrazino]-2-methyl-propionic acid]
12.6 to 100 | C[C@@](O)(CN(Cc1ccc(-c2ccccc2Cl)cc1)NC(=O)c1cc(O)no1)C(=O)O [Example 7-15, (R)-3-[N-(2′-Chlorobiphenyl-4-ylmethyl)-N′-(3-hydroxy-isoxazole-5-carbonyl)-hydrazino]-2-hydroxy-2-methyl-propionic acid]
1.26 to 10 | C[C@@](O)(CN(Cc1ccc(-c2ccccc2O)cc1)NC(=O)c1cc(O)no1)C(=O)O [Example 7-16, (R)-2-Hydroxy-3-[N-(2′-hydroxy-biphenyl-4-ylmethyl)-N′-(3-hydroxy-isoxazole-5-carbonyl)-hydrazino]-2-methyl-propionic acid]
1.26 to 10 | C[C@@](O)(CN(Cc1ccc(-c2ccccc2F)cc1)NC(=O)c1cc(O)no1)C(=O)O [Example 7-17, (R)-3-[N-(2′-Fluorobiphenyl-4-ylmethyl)-N′-(3-hydroxy-isoxazole-5-carbonyl)-hydrazino]-2-hydroxy-2-methyl-propionic acid]
1.26 to 10 | C[C@@](O)(CN(Cc1ccc(-c2cc(F)ccc2F)cc1)NC(=O)c1cc(O)no1)C(=O)O [Example 7-18, (R)-3-[N-(2′,5′-Difluorobiphenyl-4-ylmethyl)-N′-(3-hydroxy-isoxazole-5-carbonyl)-hydrazino]-2-hydroxy-2-methyl-propionic acid]
≤ 1 | C[C@@](O)(CN(Cc1ccc(-c2cc(Cl)ccc2Cl)cc1)NC(=O)c1cc(O)no1)C(=O)O [Example 7-19, (R)-3-[N-(2′,5′-Dichlorobiphenyl-4-ylmethyl)-N′-(3-hydroxy-isoxazole-5-carbonyl)-hydrazino]-2-hydroxy-2-methyl-propionic acid]
1.26 to 10 | C[C@@](O)(CN(Cc1ccc(-c2cccc(F)c2)cc1)NC(=O)c1cc(O)no1)C(=O)O [Example 7-20, (R)-3-[N-(3′-Fluorobiphenyl-4-ylmethyl)-N′-(3-hydroxy-isoxazole-5-carbonyl)-hydrazino]-2-hydroxy-2-methyl-propionic acid]
1.26 to 10 | C[C@@](O)(CN(Cc1ccc(-c2cccc(Cl)c2)cc1)NC(=O)c1c[nH]c(=O)o1)C(=O)O [Example 7-21, (R)-3-[N-(3′-Chlorobiphenyl-4-ylmethyl)-N′-(2-oxo-2,3-dihydro-oxazole-5-carbonyl)-hydrazino]-2-hydroxy-2-methyl-propionic acid]
1.26 to 10 | C[C@@](O)(CN(Cc1ccc(-c2cc(Cl)ccc2F)cc1)NC(=O)c1c[nH]c(=O)o1)C(=O)O [Example 7-22, (R)-3-[N-(5′-Chloro-2′-fluorobiphenyl-4-ylmethyl)-N′-(2-oxo-2,3-dihydro-oxazole-5-carbonyl)-hydrazino]-2-hydroxy-2-methyl-propionic acid]
1.26 to 10 | C[C@@](O)(CN(Cc1ccc(-c2cc(Cl)ccc2F)cc1)NC(=O)c1nnn[nH]1)C(=O)O [Example 7-23, (R)-3-[N-(5′-Chloro-2′-fluorobiphenyl-4-ylmethyl)-N′-(1H-tetrazole-5-carbonyl)-hydrazino]-2-hydroxy-2-methyl-propionic acid]
1.26 to 10 | Cc1ccc(Cl)cc1-c1ccc(CN(C[C@@](C)(O)C(=O)O)NC(=O)c2nnn[nH]2)cc1 [Example 7-24, (R)-3-[N-(5′-Chloro-2′-methyl-biphenyl-4-ylmethyl)-N′-(1H-tetrazole-5-carbonyl)-hydrazino]-2-hydroxy-2-methyl-propionic acid]
1.26 to 10 | C[C@@](O)(CN(Cc1ccc(-c2cccc(Cl)c2)cc1)NC(=O)c1cnc(O)nc1)C(=O)O [Example 7-25, (R)-3-[N-(3′-Chlorobiphenyl-4-ylmethyl)-N′-(2-hydroxy-pyrimidine-5-carbonyl)-hydrazino]-2-hydroxy-2-methyl-propionic acid]
≤ 1 | C[C@@](O)(CN(Cc1ccc(-c2cccc(Cl)c2)cc1)NC(=O)c1cc(C(=O)O)ncn1)C(=O)O [Example 7-26, 6-[N′—((R)-2-Carboxy-2-hydroxy-propyl)-N′-(3′-chlorobiphenyl-4-ylmethyl)-hydrazinocarbonyl]-pyrimidine-4-carboxylic acid]
≤ 1 | CC(C)(C[C@@H](Cc1ccc(-c2ccccc2)cc1)NC(=O)c1cc(O)no1)C(=O)O [Example 8A, (R)-5-Biphenyl-4-yl-4-[(3-hydroxy-isoxazole-5-carbonyl)-amino]-2,2-dimethyl-pentanoic acid]
1.26 to 10 | CC(C)(C[C@@H](Cc1ccc(-c2ccccc2)cc1)NC(=O)c1cnn[nH]1)C(=O)O [Example 9-1, (R)-5-Biphenyl-4-yl-2,2-dimethyl-4-[(3H-[1,2,3]triazole-4-carbonyl)-amino]-pentanoic acid]
1.26 to 10 | CC(C)(C[C@@H](Cc1ccc(-c2ccccc2)cc1)NC(=O)c1nc(O)n[nH]1)C(=O)O [Example 9-3, (R)-5-Biphenyl-4-yl-4-[(5-hydroxy-2H-[1,2,4]triazole-3-carbonyl)-amino]-2,2-dimethyl-pentanoic acid]
12.6 to 100 | CC(C)(C[C@@H](Cc1ccc(-c2ccccc2)cc1)NC(=O)c1ncn[nH]1)C(=O)O [Example 9-4, (R)-5-Biphenyl-4-yl-2,2-dimethyl-4-[(2H-[1,2,4]triazole-3-carbonyl)-amino]-pentanoic acid]
1.26 to 10 | CC(C)(C[C@@H](Cc1ccc(-c2ccccc2)cc1)NC(=O)c1cnc(O)nc1)C(=O)O [Example 9-5, (R)-5-Biphenyl-4-yl-4-[(2-hydroxy-pyrimidine-5-carbonyl)-amino]-2,2-dimethyl-pentanoic acid]
≤ 1 | CC(C)(C[C@@H](Cc1ccc(-c2ccccc2)cc1)NC(=O)c1cc(C(=O)O)n[nH]1)C(=O)O [Example 9-6, 5-((R)-1-Biphenyl-4-ylmethyl-3-carboxy-3-methyl-butylcarbamoyl)-1H-pyrazole-3-carboxylic acid]
12.6 to 100 | CC(C)(C[C@@H](Cc1ccc(-c2ccccc2)cc1)NC(=O)c1cc(C(=O)N2CCOCC2)n[nH]1)C(=O)O [Example 9-8, (R)-5-Biphenyl-4-yl-2,2-dimethyl-4-{[5-(morpholine-4-carbonyl)-2H-pyrazole-3-carbonyl]-amino}-pentanoic acid]
12.6 to 100 | CC(C)(C[C@@H](Cc1ccc(-c2ccccc2)cc1)NC(=O)c1cc(C(=O)N2CCC(O)C2)n[nH]1)C(=O)O (stereo partly drawn) [Example 9-9, (R)-5-Biphenyl-4-yl-4-{[5-(3-hydroxy-pyrrolidine-1-carbonyl)-2H-pyrazole-3-carbonyl]-amino}-2,2-dimethyl-pentanoic acid]
12.6 to 100 | CC(C)(C[C@@H](Cc1ccc(-c2ccccc2)cc1)NC(=O)c1cc(C(=O)N2CCC(O)CC2)n[nH]1)C(=O)O [Example 9-10, (R)-5-Biphenyl-4-yl-4-{[5-(4-hydroxy-piperidine-1-carbonyl)-2H-pyrazole-3-carbonyl]-amino}-2,2-dimethyl-pentanoic acid]

Reference: patent publication US9725448B2, “Neprilysin inhibitors” (THERAVANCE BIOPHARMA R&D IP, LLC, priority 2011, dated 2017)
